Holding throughout (assay): NCI-60 cell line screen, 48 h
Assay [1] relates to HOP-62 NSCLC.
Assay [2] concerns SNB-78 CNS.
Assay [3] relates to UO-31 renal.
Assay [4] concerns HCT-15 colon.
Assay [5] has as its system SNB-19 CNS.
For assay [6], the system named is A498 renal.
For assay [7], the system named is SW-620 colon.
The subject of assay [8] is HCC-2998 colon.
The test system of assay [9] is NCI-H522 lung.
The test system of assay [10] is M19-MEL melanoma.
For assay [11], the system named is DLD-1 colon.

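Values below derive from 48-hour exposures of cells grown in 96-well plates, with endpoints linearly interpolated between the two concentrations bracketing the appropriate inhibition level. GI50 marks 50% less growth. TGI denotes the concentration required for complete inhibition of growth.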

Take `O=c1[nH]cnc2n[nH]nc12`: the TGI in [1] was > 100 µM; in assay [2], 56.7 µM; in assay [3] it was > 100 µM; in [4], > 100 µM; in assay [5] it was > 100 µM; in [6] it was > 100 µM. The TGI in assay [7] was > 100 µM; in [8], > 74.7 µM; in [9], 53.3 µM; in [10], > 79.9 µM.
As to `OCC(O)C(O)C(O)c1nn(-c2ccc(F)cc2)c2nc3cc(Cl)c(Cl)cc3nc12` (centres undefined), the TGI in [1] is 28.8 µM; in assay [2], 27.4 µM; in assay [3], > 100 µM; in assay [4] it was > 100 µM; in assay [5], 38 µM; in assay [7], > 100 µM. Besides, the TGI is > 100 µM in [8], 31.4 µM in assay [9], 57.8 µM in assay [10] and > 100 µM in [11].
Regarding `Cc1ccc(S(=O)C(C)C(Cl)c2ccccc2)cc1` (centres undefined), the TGI in [1], in assay [2], in assay [3], in assay [4], in assay [6] and in [7] was > 100 µM in each case. Moreover, the TGI in [8], in [9], in assay [10] and in [11] was > 100 µM each time.
As for `COc1ccc(Br)c(C(=O)N2CCc3ccccc32)c1N`, the TGI in assay [1], in assay [2], in assay [3], in assay [4], in [5] and in assay [7] was > 100 µM throughout. The TGI in assay [8] is > 100 µM; in assay [9], 36.8 µM; in assay [10], > 100 µM; in assay [11] it was > 100 µM.
Regarding `O=C(O)CSc1n[nH]c(-c2ccco2)n1`, the TGI in assay [1], in [2], in assay [3], in assay [5], in [6] and in assay [7] was > 100 µM each time. The TGI in [8], in assay [9], in assay [10] and in assay [11] was > 100 µM throughout.
As for `N#CCc1cccc(CC#N)c1Br`, the TGI in assay [1], in assay [2], in assay [3], in assay [4], in [5] and in [7] was > 100 µM each time. The TGI in assay [9] and in assay [11] was > 100 µM throughout.
In the case of `OCC(O)C(O)C(O)C(O)c1nnc2c(-c3ccccc3)nc3ccccc3n12` (centres undefined), the GI50 is > 100 µM in assay [1]; > 100 µM in assay [3]; 53.1 µM in assay [4]; > 100 µM in assay [5]; 38.2 µM in assay [6]; > 100 µM in assay [7]. Further, the results for the GI50 in assay [8] and in assay [9] were 62.4 µM and 64.1 µM, respectively. Further, the TGI in [1], in assay [3], in assay [4], in assay [5], in assay [6] and in assay [7] was > 100 µM throughout. The TGI in [8] and in [9] was > 100 µM each time.
For `CCN(c1ccccc1)[C@H]1C(=O)N(c2ccc([N+](=O)[O-])cc2)[C@H]1c1ccc(OC)cc1`, the TGI in assay [2], in assay [3], in assay [5], in assay [6], in assay [7] and in assay [8] was > 100 µM throughout. Also, the TGI in [9], in assay [10] and in assay [11] was > 100 µM each time.
Regarding `COc1ccc2c(c1OC)O/C(=C\c1ncc([N+](=O)[O-])n1C)C2=O`, the GI50 in assay [1] was 3.67 µM; in assay [3] it was 0.957 µM; in assay [4] it was 0.487 µM; in [5] it was 3.69 µM; in assay [6] it was 3.32 µM; in assay [7], 0.385 µM. In addition, the GI50 is 2.16 µM in [8] and 1.36 µM in assay [9]. The TGI stood at 17.4 µM in assay [1]; 4.39 µM in assay [3]; 3.61 µM in assay [4]; 23.1 µM in assay [5]; 10.4 µM in assay [6]; 4.73 µM in [8]. Further, the TGI in assay [9] worked out at 3.48 µM.
In the case of `CCn1c(-c2nonc2N)nc2cnc(Oc3cccc(NC(=O)c4ccc(N(C)C)cc4)c3)cc21`, the GI50 in assay [1] is > 25 µM; in [3], 0.0235 µM; in assay [4], 8.55 µM; in assay [5], > 25 µM; in assay [6] it was 4.48 µM; in [7], > 25 µM. For the same molecule, the GI50 in assay [8] was > 25 µM; in assay [9] it was > 13.8 µM. The TGI is > 25 µM in [1]; > 18.8 µM in assay [3]; > 25 µM in assay [4]; > 25 µM in assay [5]; > 25 µM in assay [6]; > 25 µM in [7]. Besides, the TGI in [8] and in assay [9] was > 25 µM throughout.
With `Cc1nc2ccccc2c(=O)n1/N=C(\N=Nc1cc(Cl)ccc1Cl)c1ccccc1`, the TGI in assay [1] is > 100 µM; in assay [3] it was > 31.6 µM; in assay [4] it was > 100 µM; in assay [5] it was > 31.6 µM; in assay [6] it was > 100 µM; in assay [7], > 73.8 µM. For the same molecule, the TGI in assay [8] was > 100 µM; in [9], 81.7 µM; in [10], > 100 µM; in assay [11], > 100 µM.
On to `C1=CC2CCC1CN2CCC1CNc2ccccc21` (centres undefined), for which the TGI in assay [1], in assay [2], in [3], in [5], in assay [6] and in assay [7] was > 100 µM each time. The TGI in [8], in assay [9], in assay [10] and in [11] was > 100 µM each time.

Source of the values: PubChem BioAssay (NCI).
